The values that follow come from patent US12590056B2, “IGF2BP2 inhibitors and uses thereof” (CITY OF HOPE, priority 2020, dated 2026).

Data set [1] addresses T1, IGF2BP2 (Homo sapiens, UniProt Q9Y6M1). Briefly: Biological assays of IGF2BP2 inhibition (purified fractions and synthesized compounds). To be noted: for effectiveness, synthesized compound: compounds synthesized based on the predicted structures. From the text: (§1) Virtual screening of library compounds and lead compound identification. NCI DTP library of approximately 260,000 compounds was screened. Screening included docking on the KH3 domain of IGF2BP2. Over 500 compounds were identified for experimental validation. NSC69557, termed CWI1, was identified as a top hit. Mass spectrometry (MS) identified CWI1 as a mixture including three major peaks: CWI1, CWI1-1, and CWI1-2. Their structures were predicted based on nuclear magnetic resonance (NMR) and MS data. The compound peaks for the predicted CWI1-1 and CWI1-2 were purified by HPLC. […] CWI1, CWI1-1, and CWI1-2 were synthesized based on the predicted structures. […] Thus, the structures of CWI1-1 and CWI1-2 were confirmed.

For data set [2], the system named is IGF2BP2-low acute leukemia cell lines. The data set can be described thus: Cell differentiation in IGF2BP2-low acute leukemia cell lines. It counts as cell-based. Conditions: 24-hour treatment. From the text: (§2) FIGS. 7A-7B. Effects of CWI1-2 on cell differentiation in acute myeloid leukemia (AML).
The test system of the next data set is IGF2BP2 target genes. Briefly: Expression of IGF2BP2 target genes and of IGF2BP2 after treatment. It counts as cell-based. Conditions: after compound treatment. From the text:
(§3) FIGS. 4A-4B. CWI1-2 inhibits binding of IGF2BP2 to m^6A-modified RNA and suppresses expression of the oncogenic targets of IGF2BP2.

The target in data set [3] is T1, IGF2BP2. Briefly: Drug Affinity Responsive Target Stability (DARTS) assay. It counts as binding. Conditions: protection from degradation by proteases. As to the method:
FIG. 3. […] Drug Affinity Responsive Target Stability (DARTS) assay was performed. The principle of the assay is binding of compound to proteins protects proteins from degradation by proteases.

For data set [4], the system named is primary murine MLL-AF9 AML cells. Briefly: Engraftment of AML cells in bone marrow transplant (BMT) recipient mice. It counts as in vivo. To be noted: 5 mg/kg, i.v., daily for 7 days from ten days after BMT; peripheral blood 3 days after last treatment, flow cytometry. As to the method:
(§4) FIGS. 8A-8B. […] FIG. 8A: Ten days after BMT with primary murine MLL-AF9 AML cells, recipient mice were given vehicle control (CT) or CWI1-2 daily for 7 days (5 mg/kg, i.v.). Peripheral blood was taken 3 days after the last treatment and assessed by flow cytometry.

Data set [5] is described as follows: Body weight of BMT recipient mice. It counts as in vivo. To be noted: 5 mg/kg, i.v., daily for 7 days. As to the method:
as §4

Data set [6] addresses T1, IGF2BP2. Briefly: Cellular Thermal Shift Assay (CETSA). It counts as binding. To be noted: CETSA also run for IGF2BP1 and IGF2BP3; western blot. The procedure:
FIGS. 2A-2C. […] Cellular Thermal Shift Assay (CETSA) was conducted. The principle of the assay is unbound proteins denature and precipitate at elevated temperatures, while drug-bound proteins tend to remain in solution. Cells are seeded and treated. Cell pellets are washed, harvested, and heated. Cells are lysed and centrifuged. Western blot is performed. FIG. 2A: Results of CETSA for IGF2BP2. FIG. 2B: Results of CETSA for IGF2BP1. FIG. 2C: Results of CETSA for IGF2BP3.
(In general: Immunoblotting shows a protein as a band on a membrane.)

Data set [7] deals with human acute myeloid leukemia (AML) cells. Briefly: Anti-cancer activity in vitro (viability of human AML cells). It counts as cell-based. The text has this:
FIGS. 5A-5E. IC50 of the lead compound CWI1-2 in human acute myeloid leukemia (AML) cells. FIG. 5A: Relative viability vs. CWI1-2 concentration in healthy bone marrow #1. FIG. 5B: Relative viability vs. CWI1-2 concentration in healthy bone marrow #2. FIG. 5C: Relative viability vs. CWI1-2 concentration in AML blast cells collected from a primary AML patient. FIG. 5D: Relative survival vs. log10 concentration of CWI1-2 in IGF2BP2-high AML cell lines. FIG. 5E: Relative survival vs. log10 concentration of CWI1-2 in IGF2BP2-low AML cell lines.

Data set [8] has as its system IGF2BP2-high AML cell lines. Briefly: Apoptosis in IGF2BP2-high AML cell lines. To be noted: 24-hour treatment. It counts as cell-based, human. From the text: (§5) FIGS. 6A-6B. Effects of CWI1-2 on apoptosis in human acute myeloid leukemia (AML) cells.
The subject of data set [9] is IGF2BP2-low acute leukemia cell lines. Briefly: Apoptosis in IGF2BP2-low acute leukemia cell lines. It counts as cell-based, human. Conditions: 24-hour treatment.
From the text: as §5

For data set [10], the target named is IGF2BP2 binding to m^6A-modified single strand RNA (SS-m^6A) (Homo sapiens, UniProt Q9Y6M1). Briefly: RNA pull-down assay. It counts as biochemical.
From the text: as §3

Data set [11] has as its system IGF2BP2-high AML cell lines. Briefly: Cell differentiation in IGF2BP2-high AML cell lines. It counts as cell-based, human. To be noted: 24-hour treatment.
From the text: as §2

In a further data set the target is T2, KH3 domain of IGF2BP2 (Homo sapiens, UniProt Q9Y6M1).
T2 construct: Screening included docking on the KH3 domain of IGF2BP2
The data set can be described thus: Virtual screening of NCI DTP library (docking) followed by experimental validation. Conditions: approximately 260,000 compounds screened, over 500 taken to experimental validation.
From the text: as §1

“Also recorded” adds a separate entry of the source.

T1 sequence (Q9Y6M1 whole entry, the tested form may be a part): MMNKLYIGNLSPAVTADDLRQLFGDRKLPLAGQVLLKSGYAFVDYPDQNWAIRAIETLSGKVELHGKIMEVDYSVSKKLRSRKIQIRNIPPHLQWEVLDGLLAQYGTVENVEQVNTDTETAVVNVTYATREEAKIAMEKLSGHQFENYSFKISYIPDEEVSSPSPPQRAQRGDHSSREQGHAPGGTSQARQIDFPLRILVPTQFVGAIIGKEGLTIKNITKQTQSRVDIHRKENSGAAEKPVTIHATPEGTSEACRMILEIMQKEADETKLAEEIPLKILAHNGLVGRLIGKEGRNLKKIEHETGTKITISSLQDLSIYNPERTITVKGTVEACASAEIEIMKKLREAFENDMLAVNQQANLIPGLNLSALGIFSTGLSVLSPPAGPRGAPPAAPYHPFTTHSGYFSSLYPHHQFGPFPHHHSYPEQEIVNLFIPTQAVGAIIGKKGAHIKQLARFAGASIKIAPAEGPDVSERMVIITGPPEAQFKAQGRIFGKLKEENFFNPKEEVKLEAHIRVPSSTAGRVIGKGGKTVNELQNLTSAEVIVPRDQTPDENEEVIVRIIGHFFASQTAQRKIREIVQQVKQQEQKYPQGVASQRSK
Sequence of IGF2BP2 binding to m^6A-modified single strand RNA (SS-m^6A) (Q9Y6M1 whole entry): as the sequence (Q9Y6M1 whole entry, the tested form may be a part) above
T2 sequence (Q9Y6M1 427-492 limits assumed): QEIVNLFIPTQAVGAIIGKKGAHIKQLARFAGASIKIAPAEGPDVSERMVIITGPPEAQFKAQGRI

Regarding `NN/C(=N\N=C\c1cc(Cl)ccc1O)N/N=C\c1cc(Cl)ccc1O` [CWI1-1], the “effectiveness, synthesized compound” value at IGF2BP2 [1] is “effective”.
`Oc1ccc(Cl)cc1/C=N\N/C(=N/N=C/c1cc(Cl)ccc1O)N/N=C/c1cc(Cl)ccc1O` [CWI1-2]: the cell differentiation entry in [2] is recorded as “much less likely”; in data set [11], “induces remarkable cell differentiation; also recorded: significantly promoted”. Further, the IGF2BP2 expression entry with IGF2BP2 target genes is given as “without affecting IGF2BP2 expression”. In addition, in the data set with IGF2BP2 target genes, the “expression of IGF2BP2 target genes” value is given as “reduces expression of IGF2BP2 target genes; also recorded: suppressing expression of its oncogenic targets such as MYC oncogene”. Besides, the “binding to IGF2BP2 (DARTS)” value at IGF2BP2 [3] was “direct and preferential binding”. Besides, in data set [4], the “engraftment of AML cells in BMT recipient mice” value is given as “inhibits engraftment; also recorded: remarkably inhibit engraftment”. In addition, in data set [5], the “effect on body weight of recipient mice” value was “little effect on body weight”. For the same compound, on IGF2BP2 [6], the “binding to IGF2BP2 (CETSA)” value is “direct and preferential binding; also recorded: specifically binds to IGF2BP2”. In data set [7], the “anti-cancer activity in vitro” value is reported as “potent anti-cancer activities in vitro at nanomolar concentrations; also recorded: potent anti-cancer efficacy”. Besides, the figures for the apoptosis entry in data set [8] and in data set [9] were “induces remarkable apoptosis; also recorded: significantly promoted” and “much less likely”, respectively. In addition, the “effectiveness, synthesized compound” value at IGF2BP2 [1] is given as “much more effective”. The “activity as inhibitor of IGF2BP2, HPLC-purified fraction” value at IGF2BP2 [1] (fractions purified by HPLC from the NSC69557 mixture) was “most active inhibitor of IGF2BP2”. Besides, in [10], the “binding of IGF2BP2 to m^6A-modified RNA in the presence of compound” value is recorded as “decreased binding of IGF2BP2 to m^6A-modified single strand RNA (SS-m^6A); also recorded: prevent IGF2BP2 from binding to its mRNA targets; also recorded: specifically inhibits binding of IGF2BP2 to its mRNA targets with m^6A modification”.
Take `N/C(=N\N=C\c1cc(Cl)ccc1O)N/N=C\c1cc(Cl)ccc1O` [CWI1]: on KH3 domain of IGF2BP2, the “hit ranking in library screening” value is given as “top hit”. Further, the “effectiveness, synthesized compound” value on IGF2BP2 [1] is reported as “less effective”.
